Values after ≈ are worked out from the molar mass of the structure shown. Each block holds one molecule with its values, some of them ahead of it.
Tests used:
[1] = Biorelevant solubility; format: physicochemical; details: 37 °C, biorelevant media pH 6.5 (3 mM taurocholate, 0.75 mM phospholipids), mean ± SD, n = 3
Experimental: The media utilized in this experiment were composed of 2 mM Tris-maleate, 150 mM NaCl, and 1.06 mM CaCl2. The pH of the media was adjusted to pH 6.5. The media were supplemented with FaSSIF powder a day prior to the experiment, resulting in a composition of the final biorelevant media of 3 mM taurocholate and 0.75 mM phospholipids. This final solution will be referred to as the “biorelevant media” throughout this paper. The biorelevant media was left at room temperature at least 2 h prior to usage. […] The suspensions were placed in an oven at 37 °C and were stirred at 200 rpm. Samples were taken at time points of 3, 6, and 24 h and centrifuged at 21,380g (Mikro 200 R, Hettich GmbH, Germany) for 30 min at 37 °C. The resulting supernatant was transferred to a new sample tube and centrifuged again under identical conditions. Samples were diluted 1:10 (v/v) with the mobile phase before analysis. The samples were analyzed using an Agilent 1200 series HPLC system (Agilent Technology Inc., United States) via HPLC, as described above.

[2] = Equilibrium solubility studies in lipid excipients / LBFs; format: physicochemical; details: 37 °C, venetoclax free base equivalents
Experimental: Samples were stirred at 200 rpm (Mixdrive 15 2MAG, Germany) at 37 °C. Samples were withdrawn after 24, 48, and 72 h, followed by centrifugation at 21,000g (Mikro 200R Andreas Hettich GmbH & Co. KG, Germany) for 30 min. The supernatant was extracted and centrifuged again under identical conditions. The resulting supernatant was solubilized 1:10 v/v in a mixture of acetonitrile and ethyl acetate (1:4 v/v), followed by a further 1:10 v/v dilution in acetonitrile and ethyl acetate (4:1 v/v). Samples were analyzed by HPLC as per the method above. All samples were analyzed in triplicate.

[3] = In vitro lipolysis (dispersion and digestion) of LBFs; format: physicochemical
Experimental: The LBFs were assayed using the in vitro lipolysis method[25] to assess the potential for formulations containing dissolved lipophilic salt to maintain the drug in a solubilized state as the formulation is dispersed and digested under simulated gastrointestinal conditions. Formulations utilized in this experiment were loaded at 80% equilibrium solubility as per Section 2.2.6, at drug doses outlined in Table 3.
The in vitro lipolysis experiments were performed using a pH stat apparatus (Metrohm AG, Herisau, Switzerland) comprising an 836 Titando, an 804 Ti Stand, a pH electrode (Metrohm), and two 800 Dosino 20 mL dosing units. The system was operated by Tiamo 2.5 software (Metrohm). The biorelevant medium described in Section 2.2.8 was used for this experiment. The pancreatin extract (8× USP) was reconstituted immediately prior to use by adding 5 mL of the biorelevant medium to 1 g of pancreatin, vortexed thoroughly, and centrifuged at 4000g for 15 min at 4 °C (Centrifuge 5702 R, Eppendorf, Germany); 4 mL of the resulting supernatant was recovered and immediately stored on ice before further usage. […] The amount of NaOH dispensed was recorded by the system and used to assess the rate and extent of digestion. […] As the formulation is a type III-A formulation, ultracentrifugation was not required as the lipids should readily disperse within the biorelevant medium.[25] […]

[4] = cited from earlier work
[5] = Saturation during in vitro testing (saturation ratio); format: physicochemical; details: all cases: medium- and long-chain LBFs, after dispersion and digestion
Experimental: The degree of saturation of drug concentrations in the aqueous phase during the in vitro lipolysis experiment was measured by comparing the measured aqueous phase concentration to the equilibrium drug solubility in samples containing dispersed and digested nondrug loaded formulations under identical conditions. Excess drug or lipophilic salt was added to 2 mL samples of the blank aqueous phase and stirred at 37 °C for 24 h. Samples were withdrawn, centrifuged, and analyzed under conditions identical to those in Section 2.2.9. […] Saturation ratios were evaluated at the end of the dispersion phase and the end of the digestion phase.

SMILES: CC1(C)CCC(CN2CCN(c3ccc(C(=O)NS(=O)(=O)c4ccc(NCC5CCOCC5)c([N+](=O)[O-])c4)c(Oc4cnc5[nH]ccc5c4)c3)CC2)=C(c2ccc(Cl)cc2)C1.CCCCCCCCCCCCCCCCCCOS(=O)(=O)O [venetoclax octadecyl sulfate]
biorelevant solubility [1]: 8.4 ± 0.7 µg/mL

SMILES: CC1(C)CCC(CN2CCN(c3ccc(C(=O)NS(=O)(=O)c4ccc(NCC5CCOCC5)c([N+](=O)[O-])c4)c(Oc4cnc5[nH]ccc5c4)c3)CC2)=C(c2ccc(Cl)cc2)C1.CCCCCCCCCCCCS(=O)(=O)O [venetoclax dodecanesulfonate]
biorelevant solubility [1]: 9.8 ± 1.4 µg/mL | apparent equilibrium solubility in long-chain LBF [2]: > 25 mg/g | apparent equilibrium solubility in medium-chain LBF [2]: > 50 mg/g

SMILES: CC1(C)CCC(CN2CCN(c3ccc(C(=O)NS(=O)(=O)c4ccc(NCC5CCOCC5)c([N+](=O)[O-])c4)c(Oc4cnc5[nH]ccc5c4)c3)CC2)=C(c2ccc(Cl)cc2)C1 [venetoclax]
concentration of venetoclax in the aqueous phase ([3]; LBFs loaded with free base, dispersion and digestion): < 50 µg/mL | dose precipitated ([3]; medium- and long-chain formulations): greater than 80% | solubility in medium- and long-chain triglycerides [4]: < 1000 µg/mL | solubility ([1]; biorelevant media (FaSSIF-supplemented Tris-maleate buffer), fassif, thermodynamic from solid): 5.5 ± 1 µg/mL (≈ 6.33 µM)

Now from value to molecule:

biorelevant solubility [1]: 7.4 ± 0.7 µg/mL
SMILES: CC1(C)CCC(CN2CCN(c3ccc(C(=O)NS(=O)(=O)c4ccc(NCC5CCOCC5)c([N+](=O)[O-])c4)c(Oc4cnc5[nH]ccc5c4)c3)CC2)=C(c2ccc(Cl)cc2)C1.CCCCCCCCS(=O)(=O)O [venetoclax octanesulfonate]

biorelevant solubility [1]: 10.3 ± 0.8 µg/mL
SMILES: CC1(C)CCC(CN2CCN(c3ccc(C(=O)NS(=O)(=O)c4ccc(NCC5CCOCC5)c([N+](=O)[O-])c4)c(Oc4cnc5[nH]ccc5c4)c3)CC2)=C(c2ccc(Cl)cc2)C1.CCCCCCCCCCOS(=O)(=O)O [venetoclax decyl sulfate]

saturation ratio [5]: < 10.3 | biorelevant solubility [1]: 16.2 ± 1.6 µg/mL | apparent equilibrium solubility in long-chain LBF [2]: > 25 mg/g | apparent equilibrium solubility in medium-chain LBF [2]: > 50 mg/g
SMILES: CC1(C)CCC(CN2CCN(c3ccc(C(=O)NS(=O)(=O)c4ccc(NCC5CCOCC5)c([N+](=O)[O-])c4)c(Oc4cnc5[nH]ccc5c4)c3)CC2)=C(c2ccc(Cl)cc2)C1.CCCCC(CC)COC(=O)CC(C(=O)OCC(CC)CCCC)S(=O)(=O)O [venetoclax docusate]

biorelevant solubility [1]: 7.7 ± 0.6 µg/mL
SMILES: CC1(C)CCC(CN2CCN(c3ccc(C(=O)NS(=O)(=O)c4ccc(NCC5CCOCC5)c([N+](=O)[O-])c4)c(Oc4cnc5[nH]ccc5c4)c3)CC2)=C(c2ccc(Cl)cc2)C1.CCCCCCCCOS(=O)(=O)O [venetoclax octyl sulfate]
